Reference: the OligoGym collection
“And” between values parts separate entries of the source, which are not always exact repeats. Equal values may be shown once. HELM strings list units from the 5' end as sugar, base in round brackets, then linkage (d deoxyribose, r ribose, m 2'-O-methyl, p phosphodiester). Methylation of C is not given here. [moe] = 2'-O-(2-methoxyethyl) (MOE); [cEt] = constrained ethyl (cEt); [sp] = phosphorothioate linkage

Target: HBV
Conditions: ASO

Substance: RNA1{[moe](C)[sp].[moe](T)[sp].[moe](A)[sp].d(G)[sp].d(T)[sp].d(A)[sp].d(A)[sp].d(A)[sp].d(C)[sp].d(T)[sp].d(G)[sp].d(A)[sp].d(G)[sp].[cEt](C)[sp].[cEt](C)[sp].[cEt](A)}$$$$V2.0
- target mRNA inhibition (HepG2, 0.07 µM): 71% and 79%

Substance: RNA1{[moe](A)[sp].[moe](G)[sp].[moe](C)[sp].[moe](G)[sp].d(A)[sp].d(A)[sp].d(G)[sp].d(T)[sp].d(G)[sp].d(C)[sp].d(A)[sp].d(C)[sp].d(A)[sp].[moe](C)[sp].[moe](G)[sp].[moe](G)}$$$$V2.0
- target mRNA inhibition (HepG2, 0.0092593 µM): 25%
- target mRNA inhibition (HepG2, 0.0277778 µM): 37%
- target mRNA inhibition (HepG2, 0.07 µM): 78% and 73%
- target mRNA inhibition (HepG2, 0.0833333 µM): 73%
- target mRNA inhibition (HepG2, 0.25 µM): 87%

Substance: RNA1{[moe](G)[sp].[moe](A)[sp].[moe](A)[sp].d(G)[sp].d(C)[sp].d(G)[sp].d(A)[sp].d(A)[sp].d(G)[sp].d(T)[sp].d(G)[sp].d(C)[sp].d(A)[sp].[cEt](C)[sp].[cEt](A)[sp].[cEt](C)}$$$$V2.0
- target mRNA inhibition (HepG2, 0.07 µM): 67%

Substance: RNA1{[moe](A)[sp].[moe](C)[sp].[moe](G)[sp].d(G)[sp].d(G)[sp].d(C)[sp].d(A)[sp].d(A)[sp].d(C)[sp].d(A)[sp].d(T)[sp].d(A)[sp].[moe](C)[sp].[moe](C)[sp].[moe](T)[sp].[moe](T)}$$$$V2.0
- target mRNA inhibition (HepG2, 0.07 µM): 48% and 39%

Substance: RNA1{[moe](C)[sp].[moe](A)[sp].[moe](G)[sp].d(A)[sp].d(G)[sp].d(G)[sp].d(T)[sp].d(G)[sp].d(A)[sp].d(A)[sp].d(G)[sp].d(C)[sp].[moe](G)[sp].[moe](A)[sp].[moe](A)[sp].[moe](G)[sp].[moe](T)}$$$$V2.0
- target mRNA inhibition (HepG2, 0.07 µM): 63% and 50%

Substance: RNA1{[moe](G)[sp].[moe](A)[sp].d(G)[sp].d(G)[sp].d(T)[sp].d(G)[sp].d(A)[sp].d(A)[sp].d(G)[sp].d(C)[sp].d(G)[sp].[moe](A)[sp].[moe](A)[sp].[moe](G)[sp].[moe](T)[sp].[moe](G)}$$$$V2.0
- target mRNA inhibition (HepG2, 0.07 µM): 51% and 46%

Substance: RNA1{[moe](G)[sp].[cEt](A)[sp].d(G)[sp].d(G)[sp].d(T)[sp].d(G)[sp].d(A)[sp].d(A)[sp].d(G)[sp].d(C)[sp].d(G)[sp].d(A)[sp].[cEt](A)[sp].[moe](G)[sp].[cEt](T)[sp].[moe](G)}$$$$V2.0
- target mRNA inhibition (HepG2, 0.0092593 µM): 17%
- target mRNA inhibition (HepG2, 0.0277778 µM): 40%
- target mRNA inhibition (HepG2, 0.07 µM): 75% and 82%
- target mRNA inhibition (HepG2, 0.0833333 µM): 65%
- target mRNA inhibition (HepG2, 0.25 µM): 79%

Substance: RNA1{[moe](C)[sp].[cEt](C)[sp].[cEt](A)[sp].d(C)[sp].d(T)[sp].d(G)[sp].d(A)[sp].d(A)[sp].d(C)[sp].d(A)[sp].d(A)[sp].d(A)[sp].d(T)[sp].[cEt](G)[sp].[cEt](G)[sp].[moe](C)}$$$$V2.0
- target mRNA inhibition (HepG2, 0.0092593 µM): 11%
- target mRNA inhibition (HepG2, 0.0277778 µM): 28%
- target mRNA inhibition (HepG2, 0.07 µM): 78% and 84%
- target mRNA inhibition (HepG2, 0.0833333 µM): 68%
- target mRNA inhibition (HepG2, 0.25 µM): 89%

Substance: RNA1{[moe](G)[sp].[cEt](G)[sp].[cEt](C)[sp].d(A)[sp].d(T)[sp].d(A)[sp].d(G)[sp].d(C)[sp].d(A)[sp].d(G)[sp].d(C)[sp].d(A)[sp].d(G)[sp].[cEt](G)[sp].[cEt](A)[sp].[moe](T)}$$$$V2.0
- target mRNA inhibition (HepG2, 0.07 µM): 75% and 64%

Substance: RNA1{[moe](A)[sp].[cEt](A)[sp].[cEt](C)[sp].d(T)[sp].d(G)[sp].d(G)[sp].d(A)[sp].d(G)[sp].d(C)[sp].d(C)[sp].d(A)[sp].d(C)[sp].d(C)[sp].[cEt](A)[sp].[cEt](G)[sp].[moe](C)}$$$$V2.0
- target mRNA inhibition (HepG2, 0.07 µM): 67% and 68%

Substance: RNA1{[moe](G)[sp].[cEt](T)[sp].[cEt](C)[sp].d(C)[sp].d(A)[sp].d(C)[sp].d(C)[sp].d(A)[sp].d(C)[sp].d(G)[sp].d(A)[sp].d(G)[sp].d(T)[sp].[cEt](C)[sp].[cEt](T)[sp].[moe](A)}$$$$V2.0
- target mRNA inhibition (HepG2, 0.07 µM): 55% and 56%

Substance: RNA1{[moe](G)[sp].[moe](G)[sp].[moe](C)[sp].d(A)[sp].d(T)[sp].d(A)[sp].d(G)[sp].d(C)[sp].d(A)[sp].d(G)[sp].d(C)[sp].d(A)[sp].[moe](G)[sp].[moe](G)[sp].[moe](A)[sp].[moe](T)}$$$$V2.0
- target mRNA inhibition (HepG2, 0.07 µM): 54% and 57%

Substance: RNA1{[moe](A)[sp].[cEt](A)[sp].[cEt](C)[sp].d(A)[sp].d(A)[sp].d(A)[sp].d(T)[sp].d(G)[sp].d(G)[sp].d(C)[sp].d(A)[sp].d(C)[sp].d(T)[sp].[cEt](A)[sp].[cEt](G)[sp].[moe](T)}$$$$V2.0
- target mRNA inhibition (HepG2, 0.07 µM): 78% and 76%

Substance: RNA1{[moe](C)[sp].[cEt](T)[sp].d(A)[sp].d(G)[sp].d(T)[sp].d(A)[sp].d(A)[sp].d(A)[sp].d(C)[sp].d(T)[sp].d(G)[sp].d(A)[sp].[cEt](G)[sp].[moe](C)[sp].[cEt](C)[sp].[moe](A)}$$$$V2.0
- target mRNA inhibition (HepG2, 0.07 µM): 74% and 76%

Substance: RNA1{[moe](G)[sp].[moe](T)[sp].d(T)[sp].d(C)[sp].d(C)[sp].d(G)[sp].d(C)[sp].d(A)[sp].d(G)[sp].d(T)[sp].d(A)[sp].[moe](T)[sp].[moe](G)[sp].[moe](G)[sp].[moe](A)[sp].[moe](T)[sp].[moe](C)}$$$$V2.0
- target mRNA inhibition (HepG2, 0.07 µM): 45% and 58%

Substance: RNA1{[moe](A)[sp].[moe](G)[sp].[moe](T)[sp].[moe](T)[sp].d(C)[sp].d(C)[sp].d(G)[sp].d(C)[sp].d(A)[sp].d(G)[sp].d(T)[sp].d(A)[sp].d(T)[sp].[moe](G)[sp].[moe](G)[sp].[moe](A)}$$$$V2.0
- target mRNA inhibition (HepG2, 0.07 µM): 60% and 39%

Substance: RNA1{[moe](A)[sp].[moe](A)[sp].d(C)[sp].d(T)[sp].d(G)[sp].d(G)[sp].d(A)[sp].d(G)[sp].d(C)[sp].d(C)[sp].d(A)[sp].[moe](C)[sp].[moe](C)[sp].[moe](A)[sp].[moe](G)[sp].[moe](C)[sp].[moe](A)}$$$$V2.0
- target mRNA inhibition (HepG2, 0.07 µM): 68% and 53%

Substance: RNA1{[moe](T)[sp].[moe](T)[sp].[moe](A)[sp].[moe](T)[sp].d(G)[sp].d(C)[sp].d(C)[sp].d(T)[sp].d(A)[sp].d(C)[sp].d(A)[sp].d(G)[sp].d(C)[sp].[moe](C)[sp].[moe](T)[sp].[moe](C)}$$$$V2.0
- target mRNA inhibition (HepG2, 0.07 µM): 42% and 46%

Substance: RNA1{[moe](C)[sp].[moe](C)[sp].[moe](A)[sp].d(A)[sp].d(T)[sp].d(T)[sp].d(T)[sp].d(A)[sp].d(T)[sp].d(G)[sp].d(C)[sp].d(C)[sp].[moe](T)[sp].[moe](A)[sp].[moe](C)[sp].[moe](A)[sp].[moe](G)}$$$$V2.0
- target mRNA inhibition (HepG2, 0.07 µM): 53% and 32%

Substance: RNA1{[moe](C)[sp].[cEt](A)[sp].d(C)[sp].d(T)[sp].d(G)[sp].d(A)[sp].d(A)[sp].d(C)[sp].d(A)[sp].d(A)[sp].d(A)[sp].d(T)[sp].[cEt](G)[sp].[moe](G)[sp].[cEt](C)[sp].[moe](A)}$$$$V2.0
- target mRNA inhibition (HepG2, 0.0092593 µM): 5%
- target mRNA inhibition (HepG2, 0.0277778 µM): 26%
- target mRNA inhibition (HepG2, 0.0833333 µM): 64%
- target mRNA inhibition (HepG2, 0.25 µM): 82%

Substance: RNA1{[moe](T)[sp].[moe](T)[sp].[moe](C)[sp].d(C)[sp].d(G)[sp].d(C)[sp].d(A)[sp].d(G)[sp].d(T)[sp].d(A)[sp].d(T)[sp].d(G)[sp].[moe](G)[sp].[moe](A)[sp].[moe](T)[sp].[moe](C)[sp].[moe](G)}$$$$V2.0
- target mRNA inhibition (HepG2, 0.07 µM): 73% and 60%

Substance: RNA1{[moe](T)[sp].[cEt](C)[sp].[cEt](A)[sp].d(G)[sp].d(C)[sp].d(A)[sp].d(A)[sp].d(A)[sp].d(C)[sp].d(A)[sp].d(C)[sp].d(T)[sp].d(T)[sp].[cEt](G)[sp].[cEt](G)[sp].[moe](C)}$$$$V2.0
- target mRNA inhibition (HepG2, 0.07 µM): 67% and 71%

Substance: RNA1{[moe](G)[sp].[moe](A)[sp].[moe](A)[sp].d(C)[sp].d(C)[sp].d(A)[sp].d(C)[sp].d(T)[sp].d(G)[sp].d(A)[sp].d(A)[sp].d(C)[sp].[moe](A)[sp].[moe](A)[sp].[moe](A)[sp].[moe](T)}$$$$V2.0
- target mRNA inhibition (HepG2, 0.07 µM): 46% and 42%

Substance: RNA1{[moe](A)[sp].[moe](G)[sp].[moe](A)[sp].d(T)[sp].d(G)[sp].d(A)[sp].d(G)[sp].d(G)[sp].d(C)[sp].d(A)[sp].d(T)[sp].d(A)[sp].[moe](G)[sp].[moe](C)[sp].[moe](A)[sp].[moe](G)[sp].[moe](C)}$$$$V2.0
- target mRNA inhibition (HepG2, 0.07 µM): 69% and 63%

Substance: RNA1{[moe](A)[sp].[moe](C)[sp].d(C)[sp].d(A)[sp].d(C)[sp].d(T)[sp].d(G)[sp].d(A)[sp].d(A)[sp].d(C)[sp].d(A)[sp].[moe](A)[sp].[moe](A)[sp].[moe](T)[sp].[moe](G)[sp].[moe](G)}$$$$V2.0
- target mRNA inhibition (HepG2, 0.07 µM): 43% and 44%

Substance: RNA1{[moe](C)[sp].[moe](G)[sp].[moe](T)[sp].[moe](G)[sp].d(C)[sp].d(A)[sp].d(G)[sp].d(A)[sp].d(G)[sp].d(G)[sp].d(T)[sp].d(G)[sp].d(A)[sp].[moe](A)[sp].[moe](G)[sp].[moe](C)}$$$$V2.0
- target mRNA inhibition (HepG2, 0.07 µM): 46% and 44%

Substance: RNA1{[moe](C)[sp].[moe](T)[sp].d(A)[sp].d(G)[sp].d(T)[sp].d(A)[sp].d(A)[sp].d(A)[sp].d(C)[sp].d(T)[sp].d(G)[sp].[moe](A)[sp].[moe](G)[sp].[moe](C)[sp].[moe](C)[sp].[moe](A)}$$$$V2.0
- target mRNA inhibition (HepG2, 0.07 µM): 52% and 34%

Substance: RNA1{[moe](A)[sp].[moe](A)[sp].[moe](T)[sp].[moe](T)[sp].d(T)[sp].d(A)[sp].d(T)[sp].d(G)[sp].d(C)[sp].d(C)[sp].d(T)[sp].d(A)[sp].d(C)[sp].[moe](A)[sp].[moe](G)[sp].[moe](C)}$$$$V2.0
- target mRNA inhibition (HepG2, 0.07 µM): 38% and 34%

Substance: RNA1{[moe](T)[sp].[cEt](G)[sp].[cEt](A)[sp].d(G)[sp].d(G)[sp].d(C)[sp].d(A)[sp].d(T)[sp].d(A)[sp].d(G)[sp].d(C)[sp].d(A)[sp].d(G)[sp].[cEt](C)[sp].[cEt](A)[sp].[moe](G)}$$$$V2.0
- target mRNA inhibition (HepG2, 0.07 µM): 68% and 61%

Substance: RNA1{[moe](G)[sp].[cEt](C)[sp].d(A)[sp].d(G)[sp].d(T)[sp].d(A)[sp].d(T)[sp].d(G)[sp].d(G)[sp].d(A)[sp].d(T)[sp].d(C)[sp].[cEt](G)[sp].[moe](G)[sp].[cEt](C)[sp].[moe](A)}$$$$V2.0
- target mRNA inhibition (HepG2, 0.0092593 µM): 25%
- target mRNA inhibition (HepG2, 0.0277778 µM): 44%
- target mRNA inhibition (HepG2, 0.07 µM): 83% and 90%
- target mRNA inhibition (HepG2, 0.0833333 µM): 77%
- target mRNA inhibition (HepG2, 0.25 µM): 89%
